The values that follow come from ChEMBL document CHEMBL4507319 (2021).

Holding throughout (conditions): Compound concentration 1000.0 nM
Experiment [1] deals with T1, Dual specificity mitogen-activated protein kinase kinase 7 (Homo sapiens) (UniProt O14733).
T1 sequence (whole entry): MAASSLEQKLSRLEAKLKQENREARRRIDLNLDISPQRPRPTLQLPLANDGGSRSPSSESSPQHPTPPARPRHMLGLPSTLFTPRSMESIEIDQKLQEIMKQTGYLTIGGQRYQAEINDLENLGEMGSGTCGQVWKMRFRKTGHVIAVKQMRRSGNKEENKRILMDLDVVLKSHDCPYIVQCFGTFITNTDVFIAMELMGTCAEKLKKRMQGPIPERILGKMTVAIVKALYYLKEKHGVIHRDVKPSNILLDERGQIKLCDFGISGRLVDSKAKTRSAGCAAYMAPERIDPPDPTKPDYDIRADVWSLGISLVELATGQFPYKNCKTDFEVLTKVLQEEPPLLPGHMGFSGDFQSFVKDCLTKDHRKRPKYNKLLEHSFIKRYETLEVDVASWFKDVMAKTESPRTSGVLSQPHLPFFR

Experiment [2] concerns the target Fibroblast growth factor receptor 2 (Homo sapiens) (UniProt P21802).
Experiment [3] addresses T2, cGMP-dependent protein kinase 2 (Homo sapiens) (UniProt Q13237).
T2 sequence (whole entry): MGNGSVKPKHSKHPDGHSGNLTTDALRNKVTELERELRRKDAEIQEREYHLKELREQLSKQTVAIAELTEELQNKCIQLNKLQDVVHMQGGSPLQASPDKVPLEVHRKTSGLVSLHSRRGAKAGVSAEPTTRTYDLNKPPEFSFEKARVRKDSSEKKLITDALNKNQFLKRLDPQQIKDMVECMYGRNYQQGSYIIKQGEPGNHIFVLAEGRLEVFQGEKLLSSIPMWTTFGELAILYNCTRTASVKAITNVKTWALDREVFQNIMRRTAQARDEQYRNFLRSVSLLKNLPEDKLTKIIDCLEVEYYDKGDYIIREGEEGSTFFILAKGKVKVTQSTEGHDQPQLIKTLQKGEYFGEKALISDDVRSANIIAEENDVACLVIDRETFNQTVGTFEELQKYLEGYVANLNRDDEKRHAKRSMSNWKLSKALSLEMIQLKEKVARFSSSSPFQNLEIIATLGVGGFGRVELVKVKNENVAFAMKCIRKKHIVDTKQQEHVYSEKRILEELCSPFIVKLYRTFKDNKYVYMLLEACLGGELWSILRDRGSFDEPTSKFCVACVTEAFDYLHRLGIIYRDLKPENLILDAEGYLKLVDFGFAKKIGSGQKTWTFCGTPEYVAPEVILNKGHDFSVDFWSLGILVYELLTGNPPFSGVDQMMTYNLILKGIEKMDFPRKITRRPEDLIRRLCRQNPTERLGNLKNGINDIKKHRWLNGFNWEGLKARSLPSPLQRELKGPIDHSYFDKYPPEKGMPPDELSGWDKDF

In experiment [4] the target is T3, Serine/threonine-protein kinase Nek11 (Homo sapiens) (UniProt Q8NG66).
T3 sequence (whole entry): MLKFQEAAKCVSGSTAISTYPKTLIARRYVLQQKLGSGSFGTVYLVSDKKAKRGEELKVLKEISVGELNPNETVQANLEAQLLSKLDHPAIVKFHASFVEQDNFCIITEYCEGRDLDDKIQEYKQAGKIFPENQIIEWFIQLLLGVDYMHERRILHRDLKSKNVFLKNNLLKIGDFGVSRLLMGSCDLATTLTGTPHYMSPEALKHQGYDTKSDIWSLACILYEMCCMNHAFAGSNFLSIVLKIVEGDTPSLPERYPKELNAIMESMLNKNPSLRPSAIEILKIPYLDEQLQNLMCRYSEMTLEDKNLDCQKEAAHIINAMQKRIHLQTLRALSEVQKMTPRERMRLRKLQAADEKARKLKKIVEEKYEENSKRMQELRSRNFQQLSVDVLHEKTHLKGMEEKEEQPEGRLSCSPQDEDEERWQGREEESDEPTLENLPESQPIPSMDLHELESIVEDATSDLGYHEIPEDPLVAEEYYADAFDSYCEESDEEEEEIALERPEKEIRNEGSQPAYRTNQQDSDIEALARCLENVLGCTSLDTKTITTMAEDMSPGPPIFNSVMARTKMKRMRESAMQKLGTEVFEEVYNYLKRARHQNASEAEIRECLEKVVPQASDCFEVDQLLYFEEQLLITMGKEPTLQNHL

The target of experiment [5] is Phosphorylase b kinase gamma catalytic chain, skeletal muscle/heart isoform (Homo sapiens) (UniProt Q16816).
Experiment [6] concerns the target Myosin light chain kinase 2, skeletal/cardiac muscle (Homo sapiens) (UniProt Q9H1R3).
In experiment [7] the target is Ephrin type-A receptor 2 (Homo sapiens) (UniProt P29317).
The target in experiment [8] is T4, Protein kinase C epsilon type (Homo sapiens) (UniProt Q02156).
T4 sequence (whole entry): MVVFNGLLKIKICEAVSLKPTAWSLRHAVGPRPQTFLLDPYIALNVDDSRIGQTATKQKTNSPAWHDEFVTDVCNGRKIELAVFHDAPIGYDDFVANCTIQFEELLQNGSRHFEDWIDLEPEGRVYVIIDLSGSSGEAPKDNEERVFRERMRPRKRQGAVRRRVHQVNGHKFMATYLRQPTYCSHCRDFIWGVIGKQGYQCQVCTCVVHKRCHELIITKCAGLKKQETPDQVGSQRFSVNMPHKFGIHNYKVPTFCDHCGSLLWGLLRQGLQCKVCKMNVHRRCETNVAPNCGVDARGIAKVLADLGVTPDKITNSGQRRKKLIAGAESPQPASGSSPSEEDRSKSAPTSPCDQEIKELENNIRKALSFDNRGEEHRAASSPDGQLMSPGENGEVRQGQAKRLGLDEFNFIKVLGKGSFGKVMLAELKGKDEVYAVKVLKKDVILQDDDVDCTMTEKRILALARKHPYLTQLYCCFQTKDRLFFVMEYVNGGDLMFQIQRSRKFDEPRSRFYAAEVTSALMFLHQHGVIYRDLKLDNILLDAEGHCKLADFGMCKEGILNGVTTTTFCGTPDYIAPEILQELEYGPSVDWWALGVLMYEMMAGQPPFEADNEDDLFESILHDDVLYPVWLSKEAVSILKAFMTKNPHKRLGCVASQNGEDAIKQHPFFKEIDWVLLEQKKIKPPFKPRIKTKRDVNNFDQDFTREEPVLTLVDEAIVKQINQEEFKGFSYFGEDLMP

Experiment [9] has as its target Insulin receptor-related protein (Homo sapiens) (UniProt P14616).
Experiment [10] addresses Macrophage-stimulating protein receptor (Homo sapiens) (UniProt Q04912).
Experiment [11] concerns the target Tyrosine-protein kinase HCK (Homo sapiens) (UniProt P08631).

Sequence of Myosin light chain kinase 2, skeletal/cardiac muscle (Homo sapiens) (Q9H1R3 whole entry): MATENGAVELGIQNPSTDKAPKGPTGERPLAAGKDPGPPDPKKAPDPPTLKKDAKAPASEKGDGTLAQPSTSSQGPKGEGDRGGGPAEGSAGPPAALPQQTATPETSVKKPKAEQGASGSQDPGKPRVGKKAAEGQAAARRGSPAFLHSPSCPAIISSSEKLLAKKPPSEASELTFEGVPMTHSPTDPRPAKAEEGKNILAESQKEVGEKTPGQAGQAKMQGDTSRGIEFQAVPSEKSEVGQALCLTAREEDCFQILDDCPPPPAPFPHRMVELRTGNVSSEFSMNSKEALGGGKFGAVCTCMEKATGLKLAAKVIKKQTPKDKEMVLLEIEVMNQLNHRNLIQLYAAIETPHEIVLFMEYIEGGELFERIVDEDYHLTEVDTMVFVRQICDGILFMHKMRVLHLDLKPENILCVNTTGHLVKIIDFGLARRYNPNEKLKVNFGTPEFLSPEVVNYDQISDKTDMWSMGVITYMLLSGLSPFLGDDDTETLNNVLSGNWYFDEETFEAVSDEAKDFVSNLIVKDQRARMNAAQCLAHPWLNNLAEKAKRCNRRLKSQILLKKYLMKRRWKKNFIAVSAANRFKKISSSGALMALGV
Sequence of Ephrin type-A receptor 2 (Homo sapiens) (P29317 whole entry): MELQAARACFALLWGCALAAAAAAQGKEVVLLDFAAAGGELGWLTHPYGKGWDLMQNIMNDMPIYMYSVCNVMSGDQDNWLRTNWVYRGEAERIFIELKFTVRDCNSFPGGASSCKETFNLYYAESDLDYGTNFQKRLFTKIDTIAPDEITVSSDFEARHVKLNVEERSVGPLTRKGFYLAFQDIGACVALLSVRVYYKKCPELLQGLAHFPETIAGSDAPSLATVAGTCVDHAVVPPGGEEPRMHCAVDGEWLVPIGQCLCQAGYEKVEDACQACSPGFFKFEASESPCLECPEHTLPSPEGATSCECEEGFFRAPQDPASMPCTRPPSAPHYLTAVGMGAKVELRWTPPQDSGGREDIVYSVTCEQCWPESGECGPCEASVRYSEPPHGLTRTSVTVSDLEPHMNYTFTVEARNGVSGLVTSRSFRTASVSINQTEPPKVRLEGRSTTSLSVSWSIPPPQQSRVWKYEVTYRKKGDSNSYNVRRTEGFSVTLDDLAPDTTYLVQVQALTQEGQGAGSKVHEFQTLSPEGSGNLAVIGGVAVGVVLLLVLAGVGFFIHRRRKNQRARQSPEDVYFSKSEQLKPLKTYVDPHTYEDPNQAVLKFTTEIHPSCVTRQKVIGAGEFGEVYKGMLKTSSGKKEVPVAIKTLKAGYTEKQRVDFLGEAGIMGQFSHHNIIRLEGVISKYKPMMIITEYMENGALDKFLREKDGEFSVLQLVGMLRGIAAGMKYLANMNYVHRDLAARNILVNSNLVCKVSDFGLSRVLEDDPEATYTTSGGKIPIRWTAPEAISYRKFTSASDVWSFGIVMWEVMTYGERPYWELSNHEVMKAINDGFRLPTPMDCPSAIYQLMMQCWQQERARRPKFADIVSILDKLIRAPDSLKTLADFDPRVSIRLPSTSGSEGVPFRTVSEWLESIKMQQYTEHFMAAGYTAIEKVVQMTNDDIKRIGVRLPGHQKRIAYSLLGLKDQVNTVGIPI
Sequence of Insulin receptor-related protein (Homo sapiens) (P14616 27-742 limits assumed): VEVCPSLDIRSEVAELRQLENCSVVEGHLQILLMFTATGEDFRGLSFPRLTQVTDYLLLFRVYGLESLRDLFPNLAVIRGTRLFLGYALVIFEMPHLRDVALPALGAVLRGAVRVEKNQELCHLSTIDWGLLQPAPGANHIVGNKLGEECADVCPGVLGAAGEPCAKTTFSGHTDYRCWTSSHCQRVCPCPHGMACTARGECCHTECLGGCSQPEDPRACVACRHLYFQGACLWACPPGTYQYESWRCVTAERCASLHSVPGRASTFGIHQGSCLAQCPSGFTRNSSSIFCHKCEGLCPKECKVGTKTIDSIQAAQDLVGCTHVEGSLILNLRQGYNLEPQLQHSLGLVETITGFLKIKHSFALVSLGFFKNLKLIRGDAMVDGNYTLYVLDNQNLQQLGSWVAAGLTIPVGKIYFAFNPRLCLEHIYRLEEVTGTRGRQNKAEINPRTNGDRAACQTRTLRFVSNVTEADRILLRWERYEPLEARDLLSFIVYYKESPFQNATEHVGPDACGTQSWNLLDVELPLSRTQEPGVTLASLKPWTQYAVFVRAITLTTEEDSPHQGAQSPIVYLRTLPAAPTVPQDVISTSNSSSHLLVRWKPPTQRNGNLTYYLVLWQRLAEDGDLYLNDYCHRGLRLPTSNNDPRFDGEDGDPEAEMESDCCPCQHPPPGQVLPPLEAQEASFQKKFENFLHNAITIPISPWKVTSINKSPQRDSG
Sequence of Insulin receptor-related protein (Homo sapiens) (P14616 747-1297 limits assumed): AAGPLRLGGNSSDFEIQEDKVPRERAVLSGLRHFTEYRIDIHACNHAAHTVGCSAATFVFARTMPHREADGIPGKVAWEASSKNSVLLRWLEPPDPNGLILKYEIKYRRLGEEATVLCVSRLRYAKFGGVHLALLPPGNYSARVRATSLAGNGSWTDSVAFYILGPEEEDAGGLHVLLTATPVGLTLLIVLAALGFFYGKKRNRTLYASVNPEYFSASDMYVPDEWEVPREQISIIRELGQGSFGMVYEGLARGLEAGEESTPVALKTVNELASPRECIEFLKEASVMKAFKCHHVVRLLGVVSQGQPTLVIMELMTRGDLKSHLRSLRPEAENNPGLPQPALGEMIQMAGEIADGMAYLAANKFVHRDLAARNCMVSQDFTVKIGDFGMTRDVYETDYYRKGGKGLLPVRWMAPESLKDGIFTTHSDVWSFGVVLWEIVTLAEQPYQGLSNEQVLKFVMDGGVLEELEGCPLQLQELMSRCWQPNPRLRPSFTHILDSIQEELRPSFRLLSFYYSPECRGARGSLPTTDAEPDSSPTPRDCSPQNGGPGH
Sequence of Fibroblast growth factor receptor 2 (Homo sapiens) (P21802 22-821 limits assumed): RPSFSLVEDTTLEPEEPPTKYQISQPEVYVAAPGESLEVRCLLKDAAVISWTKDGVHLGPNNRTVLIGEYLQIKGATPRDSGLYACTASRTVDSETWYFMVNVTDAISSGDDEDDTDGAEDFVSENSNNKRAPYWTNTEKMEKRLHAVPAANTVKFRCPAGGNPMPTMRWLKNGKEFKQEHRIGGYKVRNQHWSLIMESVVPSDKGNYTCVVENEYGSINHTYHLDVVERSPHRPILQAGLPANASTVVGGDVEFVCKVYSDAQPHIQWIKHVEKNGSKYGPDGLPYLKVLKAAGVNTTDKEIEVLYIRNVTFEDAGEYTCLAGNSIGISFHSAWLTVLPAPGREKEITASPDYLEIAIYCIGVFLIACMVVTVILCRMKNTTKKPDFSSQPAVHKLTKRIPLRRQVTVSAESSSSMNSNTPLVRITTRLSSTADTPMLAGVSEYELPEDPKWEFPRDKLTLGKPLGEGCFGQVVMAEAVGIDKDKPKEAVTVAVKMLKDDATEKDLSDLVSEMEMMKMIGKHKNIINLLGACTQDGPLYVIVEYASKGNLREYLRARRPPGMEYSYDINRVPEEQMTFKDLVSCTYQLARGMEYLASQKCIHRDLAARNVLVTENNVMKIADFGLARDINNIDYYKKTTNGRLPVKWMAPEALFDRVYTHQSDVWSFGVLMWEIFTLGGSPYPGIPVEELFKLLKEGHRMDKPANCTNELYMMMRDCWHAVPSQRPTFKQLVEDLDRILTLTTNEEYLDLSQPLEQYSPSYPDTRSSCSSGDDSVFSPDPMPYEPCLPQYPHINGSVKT
Sequence of Macrophage-stimulating protein receptor (Homo sapiens) (Q04912 25-304 limits assumed): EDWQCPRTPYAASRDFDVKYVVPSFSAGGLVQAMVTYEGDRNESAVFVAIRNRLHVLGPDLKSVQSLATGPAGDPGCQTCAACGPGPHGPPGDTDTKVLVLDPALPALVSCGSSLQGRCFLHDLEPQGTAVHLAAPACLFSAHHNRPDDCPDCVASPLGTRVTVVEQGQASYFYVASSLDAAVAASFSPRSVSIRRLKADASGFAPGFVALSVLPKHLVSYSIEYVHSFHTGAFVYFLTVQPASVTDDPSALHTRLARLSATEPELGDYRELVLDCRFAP
Sequence of Macrophage-stimulating protein receptor (Homo sapiens) (Q04912 310-1400 limits assumed): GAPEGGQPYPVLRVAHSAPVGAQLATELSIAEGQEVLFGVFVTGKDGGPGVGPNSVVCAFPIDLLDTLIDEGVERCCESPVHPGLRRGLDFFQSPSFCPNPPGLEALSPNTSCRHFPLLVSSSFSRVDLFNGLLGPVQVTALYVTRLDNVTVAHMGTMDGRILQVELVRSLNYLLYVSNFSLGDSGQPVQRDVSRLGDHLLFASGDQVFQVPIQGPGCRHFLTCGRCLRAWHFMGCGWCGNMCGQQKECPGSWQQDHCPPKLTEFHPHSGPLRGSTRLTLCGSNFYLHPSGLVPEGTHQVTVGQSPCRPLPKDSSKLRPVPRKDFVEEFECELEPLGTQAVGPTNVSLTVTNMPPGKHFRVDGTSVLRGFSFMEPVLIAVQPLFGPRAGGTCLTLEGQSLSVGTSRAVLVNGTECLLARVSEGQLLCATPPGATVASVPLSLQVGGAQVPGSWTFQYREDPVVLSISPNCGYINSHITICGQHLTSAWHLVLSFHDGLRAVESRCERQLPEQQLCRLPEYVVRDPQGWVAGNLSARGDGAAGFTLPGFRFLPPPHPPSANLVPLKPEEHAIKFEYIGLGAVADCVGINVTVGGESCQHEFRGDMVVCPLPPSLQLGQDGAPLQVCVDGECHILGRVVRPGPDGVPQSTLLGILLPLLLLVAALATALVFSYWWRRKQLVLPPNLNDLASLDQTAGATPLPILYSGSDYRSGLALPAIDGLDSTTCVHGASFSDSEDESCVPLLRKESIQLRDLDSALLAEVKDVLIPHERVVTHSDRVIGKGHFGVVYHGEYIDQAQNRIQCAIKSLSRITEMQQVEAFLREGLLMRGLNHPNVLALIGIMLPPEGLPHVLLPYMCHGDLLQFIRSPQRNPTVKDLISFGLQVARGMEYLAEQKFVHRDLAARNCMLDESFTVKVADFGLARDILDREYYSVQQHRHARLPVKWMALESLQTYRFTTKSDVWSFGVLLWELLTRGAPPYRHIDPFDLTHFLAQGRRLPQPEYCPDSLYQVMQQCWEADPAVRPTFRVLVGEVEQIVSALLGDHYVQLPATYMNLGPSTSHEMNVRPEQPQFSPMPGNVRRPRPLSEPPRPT

In the case of `CC1=C(C#N)C(c2ccc3c(c2)c(NC(=O)c2ccccc2C)nn3C)C(C#N)=C(C)N1` [BAY-974], the residual activity is 65% in experiment [1]; 97% in experiment [2]; 72% in experiment [3]; 96% in experiment [4]; 91% in [5]; 89% in [6]. Also, the residual activity in experiment [7] is 82%; in [8], 85%; in [9], 100%; in experiment [10] it was 95%; in experiment [11], 66%.
As for `CCc1ccccc1C(=O)Nc1n[nH]c2c(C)c(F)c(C3C(C#N)=C(C)N(C)C(C)=C3C#N)cc12` [BAY-3827], the residual activity in experiment [1] is 100%; in experiment [2], 83%; in [3], 100%; in experiment [4], 100%; in [5] it was 44%; in experiment [6], 80%. Also, the residual activity in experiment [7] was 61%; in [8], 19%; in [9], 99%; in experiment [10], 100%; in experiment [11], 100%.
